The source of these data is US20050042674A9, “Common ligand mimics: thiazolidinediones and rhodanines” (priority 2002, published 2005).

Assay [1] concerns the target Human Aldose Reductase (AR) (Homo sapiens, UniProt P15121). The assay is described as follows: AR kinetic assay, spectrophotometric measurement of enzyme activity at 340 nm. The class given is biochemical. As for the experimental part: Solutions of 100 μl of the inhibitors in DMSO were prepared to provide a final DMSO concentration of 5% of the total assay volume. […] The reaction was then initiated with 10 μl of Human Aldose Reductase (1:5 dilution of 0.55 mg/ml). […] Reading of the samples was continued until 300 seconds. The final DMSO concentration in the cuvette was 5%. […] The substrate was kept at a level at least 10 times the Km.

The target in assay [2] is dihydrodipicolinate reductase (DHPR) (Escherichia coli, UniProt P04036). The assay is described as follows: DHPR kinetic assay, spectrophotometric oxidation of NADPH at 340 nm. Type of assay: biochemical. The conditions noted are these: Examples 36/37, FIG. 16/17. As for the experimental part: DHPR was diluted in 10 mM HEPES at a pH of 7.4. DHPS (dihydrodipicolinate synthase) was not diluted and was stored in eppindorf tubes.
Sequence of dihydrodipicolinate reductase (DHPR) (P04036 whole entry): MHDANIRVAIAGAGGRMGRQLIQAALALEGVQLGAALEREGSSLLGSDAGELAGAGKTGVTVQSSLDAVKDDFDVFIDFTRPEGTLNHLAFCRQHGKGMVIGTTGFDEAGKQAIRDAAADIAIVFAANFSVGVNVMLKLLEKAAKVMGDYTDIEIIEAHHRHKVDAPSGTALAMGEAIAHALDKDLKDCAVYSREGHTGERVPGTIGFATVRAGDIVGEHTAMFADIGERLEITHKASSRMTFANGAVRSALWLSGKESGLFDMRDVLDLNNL
The L-ASA (L-aspartate semialdehyde) solution was prepared in the following manner. […] stock solution of ASA was prepared. 100 μl of the ASA stock solution was mixed with 150 μl of concentrated NaHCO3 and 375 μl of H2O. For use in the assay, 28.8 mM L-ASA was equal to 625 μl of the solution. The L-ASA stock solution was kept at a temperature of −20° C. After dilution, the pH of the 28.8 mM solution was checked and maintained between 1 and 2.
The solution for background detection was a 945 μl solution containing 0.1 HEPES (pH 7.8), 1 mM pyruvate, 6 μM NADPH, 40 μM L-ASA, and 7 μl of 1 mg/ml DHPS at 25° C. in the volumes provided above. The sample solution was then mixed and incubated for 10 minutes. Next, 500 nM solutions of the inhibitors and enough DMSO to provide a final DMSO concentration of 5% of the total assay volume were added. The solution was mixed and incubated for an additional 6 minutes.
In DHPR samples, 5 μl of the diluted DHPR enzyme were added. The sample was mixed for 20 seconds and then the reaction was run for 10 minutes. […] Reading of the samples was continued until 300 seconds. […] The substrate was kept at a level at least 10 times the Km. The final concentration of L-ASA was about 1 mM.

Assay [3] concerns the target isopropylmalate dehydrogenase (IPMDH) (Escherichia coli, UniProt P30125). The assay is described as follows: IPMDH kinetic assay, spectrophotometric reduction of NAD at 340 nm. Type of assay: biochemical, E. coli. The note with it: Examples 36/37, FIG. 16/17. As for the experimental part:
Inhibitor was incubated for 5 minutes at 37° C. in a 990 μl of a solution containing 20 mM potassium phosphate, pH 7.6, 0.3 M potassium chloride, 0.2 mM manganese chloride, 109 μM NAD, and 340 μM DL-threo-3-isopropylmalic acid (IPM). […] Reading of the samples was continued until 300 seconds. The final concentration of DMSO in the cuvette was 5% of the total assay volume. […] The substrate was kept at a level at least 10 times the Km.

Assay [4] deals with glyceraldehyde-3-phosphate dehydrogenase (GAPDH) (Escherichia coli, UniProt P0A9B2). Description: GAPDH kinetic assay, spectrophotometric reduction of NAD+ at 340 nm. Type of assay: biochemical, E. coli. The conditions noted are these: Examples 36/37, FIG. 16/17. As for the experimental part: Reading of the samples was continued until 300 seconds. […] Cuvette #1 contained the control reaction (no inhibitor).
Sequence of glyceraldehyde-3-phosphate dehydrogenase (GAPDH) (P0A9B2 whole entry): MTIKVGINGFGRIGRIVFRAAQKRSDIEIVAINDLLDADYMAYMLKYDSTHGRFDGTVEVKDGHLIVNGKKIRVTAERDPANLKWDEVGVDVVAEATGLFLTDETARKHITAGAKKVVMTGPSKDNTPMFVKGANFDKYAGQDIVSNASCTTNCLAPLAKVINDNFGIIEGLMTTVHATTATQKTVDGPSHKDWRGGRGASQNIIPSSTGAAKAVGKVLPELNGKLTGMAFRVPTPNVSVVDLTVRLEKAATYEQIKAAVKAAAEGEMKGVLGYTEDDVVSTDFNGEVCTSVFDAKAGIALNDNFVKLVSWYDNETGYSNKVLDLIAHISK
GAP for use in this experiment was deprotected from the diethyl acetal in the following manner. Water was boiled in recrystallizing dish. […] The tube was then immersed, while shaking, in the boiling water for 3 minutes.

For assay [5], the target named is T1, alcohol dehydrogenase (ADH) (Saccharomyces cerevisiae, UniProt P00330).
T1 construct: ADH from Bakers Yeast; from tissue; host or cells: bakers yeast
T1 sequence (P00330 1-348): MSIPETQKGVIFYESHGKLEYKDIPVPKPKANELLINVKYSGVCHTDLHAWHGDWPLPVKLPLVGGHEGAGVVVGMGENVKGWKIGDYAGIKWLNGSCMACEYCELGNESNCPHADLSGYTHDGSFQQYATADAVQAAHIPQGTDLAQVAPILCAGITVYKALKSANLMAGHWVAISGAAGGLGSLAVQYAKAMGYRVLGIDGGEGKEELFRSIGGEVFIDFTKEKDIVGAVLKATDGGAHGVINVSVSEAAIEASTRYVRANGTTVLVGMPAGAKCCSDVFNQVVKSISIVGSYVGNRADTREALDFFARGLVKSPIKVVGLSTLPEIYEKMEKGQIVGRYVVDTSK
Description: ADH kinetic assay, spectrophotometric reduction of NAD+ at 340 nm. The class given is biochemical, Bakers Yeast. The note with it: Examples 36/37, FIG. 16/17. As for the experimental part: Solutions of 100 μl of the inhibitors in DMSO were prepared to provide a final DMSO concentration of 5% of the total assay volume. […] The reaction was then initiated with 10 μl of ADH from Bakers Yeast (3.3 μg/ml; 1:400 dilution of 1.0 mg/ml). […] Reading of the samples was continued until 300 seconds. […] The substrate was kept at a level at least 10 times the Km. The final concentration of pyruvate was about 2.5 mM.
Where only a simple read was desired, as in the case of NAD+concentration determination, 13 μl (10 M stock) of ethanol was used to drive the reaction, and 10 μl of pure enzyme (1 mg/ml) was used. NAD+was soluble at 2 mM, which allowed the concentration determination step to be skipped. In this situation, the procedure was as follows. All of the ingredients except for the enzyme were mixed together. The solution was mixed well and the absorbance at 340 nm read. The enzyme was added and read again at OD 340 after the absorbance stopped changing, generally 10 to 15 minutes after the enzyme was added.

For assay [6], the target named is 1-deoxy-D-xylulose-5-phosphate reductase (DOXPR) (Escherichia coli, UniProt P45568). The assay is described as follows: DOXPR kinetic assay, spectrophotometric oxidation of NADPH at 340 nm. The class given is biochemical. The conditions noted are these: Examples 36/37, FIG. 16/17. As for the experimental part: DOXPR was diluted in 10 mM HEPES at a pH of 7.4.
Sequence of 1-deoxy-D-xylulose-5-phosphate reductase (DOXPR) (P45568 whole entry): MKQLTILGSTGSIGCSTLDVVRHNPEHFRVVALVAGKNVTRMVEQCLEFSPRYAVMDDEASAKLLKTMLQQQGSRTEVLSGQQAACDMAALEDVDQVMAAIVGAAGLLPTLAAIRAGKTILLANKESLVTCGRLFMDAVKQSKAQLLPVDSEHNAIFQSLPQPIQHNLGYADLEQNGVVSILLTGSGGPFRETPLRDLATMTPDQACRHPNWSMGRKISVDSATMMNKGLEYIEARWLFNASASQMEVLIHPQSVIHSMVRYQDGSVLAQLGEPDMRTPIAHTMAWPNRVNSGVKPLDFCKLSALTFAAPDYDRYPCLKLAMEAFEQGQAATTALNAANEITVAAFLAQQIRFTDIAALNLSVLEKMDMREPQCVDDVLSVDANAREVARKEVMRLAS
Solutions of the inhibitors in DMSO were prepared to provide a final DMSO concentration of 5% of the total assay volume. […] The oxidation reaction was then initiated with 10 μl of DOXP reductoisomerase (10 μg/ml). […] Reading of the samples was continued until 300 seconds. […] The substrate was kept at a level at least 10 times the Km.

Assay [7] has as its target dihydrofolate reductase (DHFR) (UniProt P00374). The assay is described as follows: DHFR kinetic assay, spectrophotometric oxidation of NADH at 340 nm. The class given is biochemical. As for the experimental part:
H2 folate was dissolved in DMSO to about 10 mM and then diluted with water to a concentration of 0.1 mM.
Solutions of 100 μl of the inhibitors in DMSO were prepared to provide a final DMSO concentration of 5% of the total assay volume. […] The oxidation reaction was then initiated with 8 μl of DHFR (0.047 mg/ml). […] Reading of the samples was continued until 300 seconds. Cuvette #1 always contained the control reaction (no inhibitor), and cuvette #2 always contained the positive control reaction in which Cibacron Blue at 3 μM was substituted for inhibitor to yield […] inhibition. The substrate was kept at a level at least 10 times the Km.

Assay [8] concerns the target inosine-5′-monophosphate dehydrogenase (IMPDH). The assay is described as follows: IMPDH kinetic assay, spectrophotometric reduction of NAD+ at 340 nm. The class given is biochemical. The conditions noted are these: for IC50: Examples 36/37, FIG. 16/17. As for the experimental part: Solutions of 100 μl of the inhibitors in DMSO were prepared to provide a final DMSO concentration of 5% of the total assay volume. These solutions were incubated for 6 minutes at 37° C. in a 992 μl of a solution containing 0.1 M Tris-HCl, pH 8.0, 0.25 M KCl, 0.3% glycerol, 30 μM NAD+, and 600 μM IMP (inosine monophosphate). The reaction was then initiated with 8 μμl of IMPDH (0.75 μg/ml). […] Reading of the samples was continued until 300 seconds. Cuvette #1 contained the control reaction (no inhibitor), and cuvette #2 contained the positive control reaction in which Cibacron Blue was substituted for inhibitor. The substrate was kept at a level at least 10 times the Km.

Assay [9] addresses T2, lactate dehydrogenase (LDH) (Oryctolagus cuniculus, UniProt P13491).
T2 construct: LDH from Rabbit Muscle; from tissue; host or cells: rabbit muscle
The assay is described as follows: LDH kinetic assay, spectrophotometric oxidation of NADH at 340 nm. The class given is biochemical, Rabbit. As for the experimental part: Solutions of 100 μl of the inhibitors in DMSO were prepared to provide a final DMSO concentration of 5% of the total assay volume. […] The reaction was then initiated with 10 μl of LDH from Rabbit Muscle (0.5 μ/ml; 1:2000 dilution of 1.0 mg/ml). […] Reading of the samples was continued until 300 seconds. […] The substrate was kept at a level at least 10 times the Km.

In assay [10] the target is T3, HMG CoA reductase (HMGCoAR) (UniProt P04035).
T3 sequence (P04035 1-888): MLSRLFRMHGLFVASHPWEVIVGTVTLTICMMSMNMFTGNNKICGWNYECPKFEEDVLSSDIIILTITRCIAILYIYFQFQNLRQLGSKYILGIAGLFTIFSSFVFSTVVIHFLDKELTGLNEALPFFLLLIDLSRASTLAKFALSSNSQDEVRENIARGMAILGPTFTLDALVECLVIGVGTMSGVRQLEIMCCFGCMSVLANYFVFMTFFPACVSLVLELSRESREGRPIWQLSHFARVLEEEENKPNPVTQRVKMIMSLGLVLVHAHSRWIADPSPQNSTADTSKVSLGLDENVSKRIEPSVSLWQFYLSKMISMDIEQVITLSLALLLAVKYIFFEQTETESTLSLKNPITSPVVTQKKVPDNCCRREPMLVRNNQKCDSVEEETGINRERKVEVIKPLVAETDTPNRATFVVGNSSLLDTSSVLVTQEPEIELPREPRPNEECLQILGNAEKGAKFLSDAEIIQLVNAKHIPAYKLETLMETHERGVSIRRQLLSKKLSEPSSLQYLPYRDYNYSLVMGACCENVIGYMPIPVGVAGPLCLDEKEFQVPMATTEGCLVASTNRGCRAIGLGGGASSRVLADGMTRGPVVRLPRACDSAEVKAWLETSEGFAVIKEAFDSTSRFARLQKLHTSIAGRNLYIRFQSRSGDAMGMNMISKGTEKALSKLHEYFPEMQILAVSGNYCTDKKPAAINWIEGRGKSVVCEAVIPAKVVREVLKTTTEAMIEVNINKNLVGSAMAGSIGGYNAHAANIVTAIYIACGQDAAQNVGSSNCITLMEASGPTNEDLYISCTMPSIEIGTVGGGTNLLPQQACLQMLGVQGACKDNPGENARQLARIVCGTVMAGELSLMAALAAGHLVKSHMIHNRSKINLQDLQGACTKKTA
Description: HMGCoAR kinetic assay, spectrophotometric oxidation of NADPH at 340 nm. The class given is biochemical. The note with it: Examples 36/37, FIG. 16/17.
Description: For HMGCoAR analysis, the compounds were screened using a kinetic protocol that spectrophotometrically evaluates oxidation of NADPH.
Stock solutions of each of the reagents were prepared in the following concentrations. Dilutions of the stock solutions were prepared prior to running the assay in the concentrations indicated below. The enzyme was diluted in 1 M NaCl. To prepare the dilution buffer, 10 μl of HMGCoAR (1 mg/ml) was mixed with 133 μl of 3 M NaCl solution and 257 μl of 25 mM KH2PO4 buffer (pH 7.5; containing 50 mM NaCl, μl mM EDTA (ethylenediaminetetraacetic acid), and 5 mM DTT (dithiothreitol).
The HMGCoAR reaction was monitored at 340 nm prior to and after addition of the inhibitor to detect background reaction with the inhibitor. Solutions of 500 nM of the inhibitors in DMSO were prepared to provide a final DMSO concentration of 2% of the total assay volume. […] The reaction was then initiated with 5 μl of HMGCoAR enzyme (1:40 dilution of 0.65 mg/ml). After the enzyme was added, the solution was mixed for 20 seconds, and the reaction was run for 10 minutes. After a 50 second lag, the samples were read in a Cary spectrophotometer at 340 nm. Reading of the samples was continued until 300 seconds. […] The substrate was kept at a level at least 10 times the Km.

The structures appear in SMILES notation. Several values for one entry are separate records, joined by “and”; a condition that tells them apart may be missing. Equal values may be shown once. Read-outs that look alike come from different tables or passages of the source.

Sequence of dihydrofolate reductase (DHFR) (P00374 whole entry): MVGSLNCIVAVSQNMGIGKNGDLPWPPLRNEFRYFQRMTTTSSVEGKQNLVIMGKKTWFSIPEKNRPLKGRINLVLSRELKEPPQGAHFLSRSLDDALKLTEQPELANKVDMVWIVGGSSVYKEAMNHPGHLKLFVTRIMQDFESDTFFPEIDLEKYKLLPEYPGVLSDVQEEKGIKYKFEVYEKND
Sequence of isopropylmalate dehydrogenase (IPMDH) (P30125 whole entry): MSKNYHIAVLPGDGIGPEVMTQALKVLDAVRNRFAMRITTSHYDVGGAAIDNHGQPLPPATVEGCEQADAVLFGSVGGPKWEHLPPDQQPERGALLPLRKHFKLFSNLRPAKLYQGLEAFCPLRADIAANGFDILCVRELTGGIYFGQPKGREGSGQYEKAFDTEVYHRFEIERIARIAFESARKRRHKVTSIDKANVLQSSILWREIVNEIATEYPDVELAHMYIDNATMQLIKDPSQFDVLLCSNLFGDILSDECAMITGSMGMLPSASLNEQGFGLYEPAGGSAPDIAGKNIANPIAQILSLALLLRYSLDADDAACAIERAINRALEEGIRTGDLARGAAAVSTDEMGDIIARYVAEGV

Usually IC50 stands for the concentration that gives 50% inhibition. With `O=C1NC(=O)C(=Cc2ccc(-c3ccc(O)c(C(=O)O)c3)o2)S1` [Compound 5e, 5-[5-(2,4-dioxo-thiazolidin-5-ylidenemethyl)-furan-2-yl]-2-hydroxy-benzoic acid], the “inhibition of AR” value in assay [1] (Examples 36/37, result in words) is listed as “No inhibition”. Further, the IC50 in assay [2] (read-out: IC50 for DHPR) was > 200 µM; in assay [3], > 50 µM; in assay [4] (read-out: IC50 for GAPDH), > 200 µM; in assay [5], 21 µM; in [6] (read-out: IC50 for DOXPR) it was > 100 µM; in assay [8], 2.15 µM. In assay [9] (Examples 36/37, FIG. 16/17), this molecule came in with an IC50 of 46 µM. In assay [7] (Example 37, result in words), the “inhibition of DHFR” value is reported as “No inhibition”.
Turning to `O=C1NC(=S)SC1=Cc1ccc(-c2ccc(O)c(C(=O)O)c2)o1` [Compound 7e, 2-hydroxy-5-[5-(4-oxo-2-thioxo-thiazolidin-5-ylidenemethyl)-furan-2-yl]-benzoic acid], the IC50 is 143 nM in [10]; 2.1 µM in assay [2] (IC50 for DHPR); 3.4 µM in [5]; 1.6 µM in [6] (IC50 for DOXPR); 4.3 µM in [7] (read-out: IC50 for DHFR; Examples 36/37, FIG. 16/17); 0.34 µM in assay [9] (Example 37, FIG. 17).
On to `O=C1NC(=O)C(=Cc2ccc(-c3ccc(C(=O)O)cc3)o2)S1` [Compound 5a, 4-[5-(2,4-dioxo-thiazolidin-5-ylidenemethyl)-furan-2-yl]-benzoic acid], for which the IC50 in assay [1] (Examples 36/37, FIG. 16/17) was 2.26 µM and 4.1 µM; in assay [2] (read-out: IC50 for DHPR), > 200 µM; in assay [3] it was > 200 µM; in assay [4] (read-out: IC50 for GAPDH), > 200 µM; in assay [5], 116 µM and 140 µM; in assay [7] (Examples 36/37, FIG. 16/17; read-out: IC50 for DHFR), > 75 µM. The IC50 was 58.8 µM in assay [8] and > 200 µM in assay [8] (listed as Sa). The “inhibition of DHFR” value in assay [7] (Example 37, result in words) is “No inhibiiton”.
Take `O=C1NC(=O)C(=Cc2ccc(-c3cccc(C(=O)O)c3)o2)S1` [Compound 5b, 3-[5-(2,4-dioxo-thiazolidin-5-ylidenemethyl)-furan-2-yl]-benzoic acid]: the IC50 in assay [10] was > 400000 nM; in assay [2] (IC50 for DHPR), > 400 µM; in [4] (IC50 for GAPDH), > 400 µM; in [6] (IC50 for DOXPR) it was > 400 µM. Moreover, the “inhibition of IMPDH” value in [8] (Example 37, result in words) was “No inhibition”.
